Laboratory results published in patent publication US20140303092A1 (CHIMERIX, INC., priority 2011, published 2014).

Test: Study HDP-CDV-201: safety and tolerability (adverse events, laboratory abnormalities, discontinuations)
Format: in vivo, human (adult allogeneic HSCT recipients)
Protocol: Clinical Studies of HDP-CDV were performed and described in detail in the following Examples. For example, HDP-CDV-201 is a placebo-controlled, dose-escalating trial in HSCT CMV (R+) recipients, evaluating the ability of HDP-CDV to prevent or control CMV infection was carried out. Five cohorts were established in which participants or subjects received either placebo or the HDP-CDV orally, in doses ranging from 40 mg weekly (QW) to 200 mg twice weekly (BIW). Subjects who were post-HSCT were enrolled at the time of engraftment and randomized to HDP-CDV or placebo (3 to 1 ratio) and received blinded therapy until approximately 100 day post-transplantation. HDP-CDV doses were 40 mg QW, 100 mg QW, 200 mg QW, 200 mg BIW and 100 mg BIW. Escalation to the next dose was decided by the data monitoring committee after review of the safety data from the previous Cohort. Subjects who developed CMV disease or CMV infection requiring pre-emptive therapy with local standard of care were discontinued from blinded therapy and followed for 4 weeks. Subjects who completed treatment with blinded therapy were followed for 8 weeks post-therapy.
Data from Study HDP-CDV-201 also provided characterization of the safety and tolerability profile of HDP-CDV when administered for the prevention or control of CMV infection in high risk (R^+) post-HSCT adult subjects.
The Safety population (SAFETY) included all randomized subjects who took at least one dose of study treatment. This population was used to summarize safety outcomes based on the treatment actually received, in cases where a subject was treated contrary to the randomization schedule.
The safety and tolerability profile of HDP-CDV, including subject demographics and Baseline characteristics; the AE profile; and laboratory abnormalities of interest were analyzed in the cohorts followed in this investigation.
Subjects completing the treatment period received a full course of study medication; those completing the entire study attended visits through 8 weeks of follow up. Subjects who discontinued treatment may have done so for protocol specified reasons (e.g. development of clinically significant CMV infection requiring preemptive treatment with excluded anti-CMV medications) or for other reasons (e.g., withdrawal, adverse events, loss to follow-up). The disposition of subjects in Study HDP-CDV-201 during the double-blind, placebo-controlled treatment period (through Week 11) is listed by dosing Cohort in TABLE 23.
Adverse events were examined by severity to ensure that all safety signals were identified in this study population. Because of the frequency of events in HSCT recipients, particular attention was given to evaluation of Grade 3 […], 4 (severe), and 5 (fatal) adverse events.
Only those preferred terms for which at least one Grade 3 or higher event was experienced in any treatment group are listed. Cytomegalovirus-related AEs are excluded from this analysis.
HDP-CDV is a lipid conjugate of CDV. Because CDV is known to have adverse effects on renal function and bone marrow, decreased GFR and persistent neutropenia were identified as AEs of special interest. Key renal and hematological (TABLE 30) laboratory parameters were measured and listed below by Study HDP-CDV-201 treatment groups. TABLE 30 includes abnormal levels of serum creatinine, neutrophils, platelets, WBCs, and hemoglobin and includes data at Screening and during the treatment period.
A common metric for unit based dosing of medications is by weight (mg/kg). When the distribution of weights was examined for all subjects participating in the study, the median was 78 kg and the lower 25th percentile weight was approximately 65 kg, which translates to a cut-off of ˜3 mg/kg for a 200 mg total weekly dose. Based upon this approach, a cut-off of 3 mg/kg was used to assess the frequency of diarrhea and associated GI AEs reported for the subjects in Cohorts 3 or 4a (TABLE 40).

CCCCCCCCCCCCCCCCOCCCOP(=O)(O)COC(CO)Cn1ccc(N)nc1=O (stereo not drawn) [HDP-CDV]
Grade of hepatobiliary AE acute liver injury, subject 3025 (Cohort 3): 1
Grade of hepatobiliary AE gallbladder sludge, subject 3044 (Cohort 3): 2
Grade of hepatobiliary AE hyperbilirubenemia, subject 3030 (Cohort 3): 2
Grade of hepatobiliary AE hyperbilirubinemia, subject 3009 (Cohort 3): 1
Grade of hepatobiliary AE hyperbilirubinemia, subject 3044 (Cohort 3): 4
Grade of hepatobiliary AE jaundiced, subject 3030 (Cohort 3): 2
Outcome of hepatobiliary AE acute liver injury, subject 3007 (Cohort 3): not recovered/not
Outcome of hepatobiliary AE acute liver injury, subject 3025 (Cohort 3): recovered/resolved
Outcome of hepatobiliary AE gallbladder sludge, subject 3044 (Cohort 3): not recovered/not
Outcome of hepatobiliary AE hyperbilirubenemia, subject 3030 (Cohort 3): not recovered/not
Outcome of hepatobiliary AE hyperbilirubinemia, subject 3009 (Cohort 3): recovered/resolved
Outcome of hepatobiliary AE hyperbilirubinemia, subject 3044 (Cohort 3): not recovered/not
Outcome of hepatobiliary AE jaundiced, subject 3030 (Cohort 3): not recovered/not
Relationship of hepatobiliary AE acute liver injury, subject 3007 (Cohort 3): not related
Relationship of hepatobiliary AE acute liver injury, subject 3025 (Cohort 3): not related
Relationship of hepatobiliary AE gallbladder sludge, subject 3044 (Cohort 3): not related
Relationship of hepatobiliary AE hyperbilirubenemia, subject 3030 (Cohort 3): not related
Relationship of hepatobiliary AE hyperbilirubinemia, subject 3009 (Cohort 3): not related
Relationship of hepatobiliary AE hyperbilirubinemia, subject 3044 (Cohort 3): not related
Relationship of hepatobiliary AE jaundiced, subject 3030 (Cohort 3): not related
subjects discontinued due to neutropenia (Cohort 3): 2 subject(s)
ALT (Screening) >3 × ULN-5 × ULN, subjects (Cohort 3, 200 mg QW): 0
ALT (Screening) >5 × ULN-10 × ULN, subjects (Cohort 3, 200 mg QW): 0
ALT (Screening) >10 × ULN-20 × ULN, subjects (Cohort 3, 200 mg QW): 0
ALT (Screening) >20 × ULN, subjects (Cohort 3, 200 mg QW): 0
ALT (any time during therapy) >3 × ULN-5 × ULN, subjects (Cohort 3, 200 mg QW): 4 (10.5%)
ALT (any time during therapy) >5 × ULN-10 × ULN, subjects (Cohort 3, 200 mg QW): 5 (13.2%)
ALT (any time during therapy) >10 × ULN-20 × ULN, subjects (Cohort 3, 200 mg QW): 0
ALT (any time during therapy) >20 × ULN, subjects (Cohort 3, 200 mg QW): 1 (2.6%)
AST (Screening) >3 × ULN-5 × ULN, subjects (Cohort 3, 200 mg QW): 0
AST (Screening) >5 × ULN-10 × ULN, subjects (Cohort 3, 200 mg QW): 0
AST (Screening) >10 × ULN-20 × ULN, subjects (Cohort 3, 200 mg QW): 0
AST (Screening) >20 × ULN, subjects (Cohort 3, 200 mg QW): 0
AST (any time during therapy) >3 × ULN-5 × ULN, subjects (Cohort 3, 200 mg QW): 5 (13.2%)
AST (any time during therapy) >5 × ULN-10 × ULN, subjects (Cohort 3, 200 mg QW): 1 (2.6%)
AST (any time during therapy) >10 × ULN-20 × ULN, subjects (Cohort 3, 200 mg QW): 0
AST (any time during therapy) >20 × ULN, subjects (Cohort 3, 200 mg QW): 0
Alkaline Phosphatase (Screening) >2.5-5.0 × ULN, subjects (Cohort 3, 200 mg QW): 0
Alkaline Phosphatase (Screening) >5.0-20.0 × ULN, subjects (Cohort 3, 200 mg QW): 0
Alkaline Phosphatase (Screening) >20.0 × ULN, subjects (Cohort 3, 200 mg QW): 0
Alkaline Phosphatase (Screening) >ULN-[…] ULN, subjects (Cohort 3, 200 mg QW): 5 (13.5%)
Alkaline Phosphatase (any time during therapy) >2.5-5.0 × ULN, subjects (Cohort 3, 200 mg QW): 0
Alkaline Phosphatase (any time during therapy) >5.0-20.0 × ULN, subjects (Cohort 3, 200 mg QW): 0
Alkaline Phosphatase (any time during therapy) >20.0 × ULN, subjects (Cohort 3, 200 mg QW): 0
Alkaline Phosphatase (any time during therapy) >ULN-[…] ULN, subjects (Cohort 3, 200 mg QW): 14 (36.8%)
GI AE Leading to Study Drug Discontinuation: Abdominal pain, subjects (Cohort 3, 200 mg QW): 0
GI AE Leading to Study Drug Discontinuation: Diarrhoea, subjects (Cohort 3, 200 mg QW): 1 (2.6%)
GI AE Leading to Study Drug Discontinuation: Dyspepsia, subjects (Cohort 3, 200 mg QW): 2 (5.1%)
GI AE Leading to Study Drug Discontinuation: Nausea, subjects (Cohort 3, 200 mg QW): 0
GI AE Leading to Study Drug Discontinuation: Vomiting, subjects (Cohort 3, 200 mg QW): 0
GI AEs Leading to Study Drug Discontinuation: Total subjects discontinued (Cohort 3, 200 mg QW): 3 (7.7%)
Gastrointestinal AE Abdominal discomfort, subjects (Cohort 3, 200 mg QW): 1 (2.6%)
Gastrointestinal AE Abdominal distention, subjects (Cohort 3, 200 mg QW): 0
Gastrointestinal AE Abdominal pain upper, subjects (Cohort 3, 200 mg QW): 1 (2.6%)
Gastrointestinal AE Abdominal pain, subjects (Cohort 3, 200 mg QW): 5 (12.8%)
Gastrointestinal AE Constipation, subjects (Cohort 3, 200 mg QW): 2 (5.1%)
Gastrointestinal AE Diarrhoea, subjects (Cohort 3, 200 mg QW): 13 (33.3%)
Gastrointestinal AE Diverticulum intestinal haemorragic, subjects (Cohort 3, 200 mg QW): 1 (2.6%)
Gastrointestinal AE Dyspepsia, subjects (Cohort 3, 200 mg QW): 4 (10.3%)
Gastrointestinal AE Dysphagia, subjects (Cohort 3, 200 mg QW): 0
Gastrointestinal AE Epigastric discomfort, subjects (Cohort 3, 200 mg QW): 0
Gastrointestinal AE Flatulence, subjects (Cohort 3, 200 mg QW): 1 (2.6%)
Gastrointestinal AE GERD, subjects (Cohort 3, 200 mg QW): 2 (5.1%)
Gastrointestinal AE Gastritis, subjects (Cohort 3, 200 mg QW): 0
Gastrointestinal AE Haematochezia, subjects (Cohort 3, 200 mg QW): 0
Gastrointestinal AE Haemorroids, subjects (Cohort 3, 200 mg QW): 0
Gastrointestinal AE Large intestinal ulcer, subjects (Cohort 3, 200 mg QW): 0
Gastrointestinal AE Nausea, subjects (Cohort 3, 200 mg QW): 11 (28.2%)
Gastrointestinal AE Odynophagia, subjects (Cohort 3, 200 mg QW): 0
Gastrointestinal AE Oesophagitis, subjects (Cohort 3, 200 mg QW): 0
Gastrointestinal AE Retching, subjects (Cohort 3, 200 mg QW): 0
Gastrointestinal AE Vomiting, subjects (Cohort 3, 200 mg QW): 6 (15.4%)
Hepatobiliary clinical AE Cholelithiasis, subjects (Cohort 3, 200 mg QW): 0
Hepatobiliary clinical AE Hepatomegaly, subjects (Cohort 3, 200 mg QW): 0
Hepatobiliary clinical AE Hyperbilirubinaemia, subjects (Cohort 3, 200 mg QW): 3 (7.7%)
Hepatobiliary clinical AE Jaundice, subjects (Cohort 3, 200 mg QW): 1 (2.6%)
Hepatobiliary clinical AE Liver injury, subjects (Cohort 3, 200 mg QW): 2 (5.1%)
Intensity of Gastrointestinal AEs, Grade 1, subjects (Cohort 3, 200 mg QW): 12 (30.8%)
Intensity of Gastrointestinal AEs, Grade 2, subjects (Cohort 3, 200 mg QW): 10 (25.6%)
Intensity of Gastrointestinal AEs, Grade 3, subjects (Cohort 3, 200 mg QW): 2 (5.1%)
Intensity of Gastrointestinal AEs, Grade 4, subjects (Cohort 3, 200 mg QW): 2 (5.1%)
Intensity of Gastrointestinal AEs, Grade 5, subjects (Cohort 3, 200 mg QW): 0
Proportion of Subjects with Stage 3 or 4 Gut GVHD (Cohort 3, 200 mg QW): 0%
Serum ALT level, Median fold increase from Baseline at Follow-up Week 1 (Cohort 3, 200 mg QW): 2.52 fold
Serum ALT level, Median fold increase from Baseline at Follow-up Week 4 (Cohort 3, 200 mg QW): 1.06 fold
Serum ALT level, Peak Median fold increase from Baseline (Cohort 3, 200 mg QW): 3.13 fold
Subjects completed study (Cohort 3, 200 mg QW): 14 (35.9%) n (%)
TEAE Abdominal pain Grade 2, subjects (Cohort 3, 200 mg QW): 1 (2.6%)
TEAE Abdominal pain Grade 3, subjects (Cohort 3, 200 mg QW): 1 (2.6%)
TEAE Abdominal pain Grade 4, subjects (Cohort 3, 200 mg QW): 0
TEAE Abdominal pain Grade 5, subjects (Cohort 3, 200 mg QW): 0
TEAE Abdominal pain Overall Frequency, subjects (Cohort 3, 200 mg QW): 5 (12.8%)
TEAE Diarrhea Grade 2, subjects (Cohort 3, 200 mg QW): 5 (12.8%)
TEAE Diarrhea Grade 3, subjects (Cohort 3, 200 mg QW): 2 (5.1%)
TEAE Diarrhea Grade 4, subjects (Cohort 3, 200 mg QW): 0
TEAE Diarrhea Grade 5, subjects (Cohort 3, 200 mg QW): 0
TEAE Diarrhea Overall Frequency, subjects (Cohort 3, 200 mg QW): 13 (33.3%)
TEAE Hypokalaemia Grade 2, subjects (Cohort 3, 200 mg QW): 2 (5.1%)
TEAE Hypokalaemia Grade 3, subjects (Cohort 3, 200 mg QW): 0
TEAE Hypokalaemia Grade 4, subjects (Cohort 3, 200 mg QW): 0
TEAE Hypokalaemia Grade 5, subjects (Cohort 3, 200 mg QW): 0
TEAE Hypokalaemia, subjects (Cohort 3, 200 mg QW): 5 (12.8%)
TEAE Nausea Grade 2, subjects (Cohort 3, 200 mg QW): 4 (10.3%)
TEAE Nausea Grade 3, subjects (Cohort 3, 200 mg QW): 1 (2.6%)
TEAE Nausea Grade 4, subjects (Cohort 3, 200 mg QW): 0
TEAE Nausea Grade 5, subjects (Cohort 3, 200 mg QW): 0
TEAE Nausea Overall Frequency, subjects (Cohort 3, 200 mg QW): 11 (28.2%)
TEAE Vomiting Grade 2, subjects (Cohort 3, 200 mg QW): 1 (2.6%)
TEAE Vomiting Grade 3, subjects (Cohort 3, 200 mg QW): 1 (2.6%)
TEAE Vomiting Grade 4, subjects (Cohort 3, 200 mg QW): 0
TEAE Vomiting Grade 5, subjects (Cohort 3, 200 mg QW): 0
